pIC50: −log10 of the molar value.
Key:
[1] = Assay C: permeability in CACO-2 cells; format: in vitro ADME; details: human, pH 7.2; for efflux ratio: Caco-2, Permeability B-A/Permeability A-B; for Papp A→B: Caco-2, apical to basolateral
Experimental: Caco-2 cells (1−2×10^5 cells/1 cm^2 area) are seeded on filter inserts (Costar transwell polycarbonate or PET filters, 0.4 µm pore size) and cultured (DMEM) for 10 to 25 days. Compounds are dissolved in appropriate solvent (like DMSO, 1-20 mM stock solutions). […] The transport solution (TL) is applied to the apical or basolateral donor side for measuring A-B or B-A permeability (3 filter replicates), respectively. Samples are collected at the start and end of experiment from the donor and at various time intervals for up to 2 hours also from the receiver side for concentration measurement by HPLC-MS/MS or scintillation counting. Sampled receiver volumes are replaced with fresh receiver solution. Efflux Ratio (ER)=Permeability B-A/Permeability A-B

QPCT = target: T1, QPCT (Homo sapiens, UniProt Q16769); experiment: Assay A: biochemical QPCT activity assay (MALDI-TOF MS, CD47 peptide substrate); details: 0.5 nM enzyme, 20 μM CD47 peptide substrate; read-out: Inhibition of QPCT: IC50
T1 construct: purchased Origine (OriGene) TP700028
Experimental: (§1) QPCT or QPCTL dependent conversion of N-terminal glutamine to pyroglutamate of CD47 was monitored via MALDI-TOF MS. Test compounds were dissolved in 100% DMSO and serially diluted into clear 1,536-well microtiter plates. […] The plates were incubated for 10 min in a humidified incubator at 24° C. Subsequently, 2.5 μL of CD47 peptide substrate surrogate (^19[…]^33) was added to each well (final concentration: 10 μM for QPCTL/20 μM for QPCT). […] The plates were sealed with an adhesive foil, mixed for 30 s at 1,000 rpm and stored at room temperature until preparation of the MALDI target plates. MALDI target plates were prepared as described previously. […] QPCT or QPCTL activity was monitored by calculating the ratio between product and internal standard signals followed by normalization to high (100% activity) and low (0% activity) controls. Determination of compound potencies was obtained by fitting the dose-response data to a four-parameter logistical equation.

[2] = system: SIRPα signalling induced by A549 cells; experiment: Assay B: SIRPα signalling assay using A549 cells; format: cell-based; details: Homo sapiens, 48 h compound incubation, Jurkat PathHunter SIRPαV1 reporter cells, read-out: Inhibition of SIRPα signalling induced by A549 cells: IC50
Experimental: (§2) Two cell types are independently used: the Raji cell line (lymphoblast-like human cell line derived from B lymphocytes from a Burkitt's lymphoma patient in 1963) and A549 cells (adenocarcinomic human alveolar basal epithelial cells).
(§3) Test compounds were dissolved in 100% DMSO and serially diluted into a white 384-well microtiter cell culture plate (PerkinElmer #60076780 in case of Raji assay; PDL-coated plates Greiner #781945 in case of A549 assay). 5000 Raji cells (ATCC #CC86) or 5000 A549 cells (ATCC #CCL-185) in Assay Complete Cell Plating reagent 30 (DiscoverX 93-0563R30B) were added per well. The assay plate was incubated for 48 h at 37° C., 95% humidity and 5% CO2. 15000 reporter cells (Jurkat PathHunter SIRPαV1, DiscoverX #93-1135C19) were added to each well, and the plate was incubated for 5 h at 37° C., 95% humidity and 5% CO2. Bioassay reagent 1 of the PathHunter Bioassay detection kit (DiscoverX 93-0001) was added to each well of the plate using a multichannel pipette followed by a 15 min incubation at room temperature. Afterwards bioassay reagent 2 was added followed by […] incubation at room temperature (incubation in the dark). The analysis of the data was performed using the luminescence signal generated by beta-galactosidase in the PathHunter reporter cell line. The luminescence measurement was done using a Pherastar Multi-Mode Reader. Dose-response curves & IC50 data were calculated with 4-parameter sigmoidal dose response formula.

QPCTL = target: T2, QPCTL (Homo sapiens, UniProt Q9NXS2); experiment: Assay A: biochemical QPCTL activity assay (MALDI-TOF MS, CD47 peptide substrate); details: 0.5 nM enzyme, 10 μM CD47 peptide substrate; read-out: Inhibition of QPCTL: IC50
T2 construct: made in house
Experimental: as §1

[3] = system: SIRPα signalling induced by Raji cells; experiment: Assay B: SIRPα signalling assay using Raji cells; format: cell-based; details: Homo sapiens, 48 h compound incubation, Jurkat PathHunter SIRPαV1 reporter cells, read-out: Inhibition of SIRPα signalling induced by Raji cells: IC50
Experimental: as §2, §3

T2 sequence (Q9NXS2 whole entry): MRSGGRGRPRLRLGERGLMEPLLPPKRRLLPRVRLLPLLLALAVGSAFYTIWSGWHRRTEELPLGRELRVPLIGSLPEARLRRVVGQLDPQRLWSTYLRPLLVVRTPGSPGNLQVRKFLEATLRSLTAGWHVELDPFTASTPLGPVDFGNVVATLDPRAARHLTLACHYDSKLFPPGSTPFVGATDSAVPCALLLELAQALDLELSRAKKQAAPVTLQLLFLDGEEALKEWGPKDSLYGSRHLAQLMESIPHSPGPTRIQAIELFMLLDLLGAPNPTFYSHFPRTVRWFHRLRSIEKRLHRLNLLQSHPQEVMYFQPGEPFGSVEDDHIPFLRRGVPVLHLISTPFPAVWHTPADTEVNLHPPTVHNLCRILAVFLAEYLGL
T1 sequence (Q16769 29-361): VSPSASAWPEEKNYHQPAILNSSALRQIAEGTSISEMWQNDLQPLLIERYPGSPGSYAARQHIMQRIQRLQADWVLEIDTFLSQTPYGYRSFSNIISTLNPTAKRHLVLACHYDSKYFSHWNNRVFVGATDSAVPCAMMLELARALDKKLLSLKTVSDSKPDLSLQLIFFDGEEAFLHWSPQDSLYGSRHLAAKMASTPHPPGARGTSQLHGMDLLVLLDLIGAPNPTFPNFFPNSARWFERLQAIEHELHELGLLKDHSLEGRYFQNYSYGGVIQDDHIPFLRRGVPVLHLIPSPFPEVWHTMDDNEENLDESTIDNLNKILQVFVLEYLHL

efflux ratio [1] | Papp A→B [1] [×10⁻⁶ cm/s] | pIC50 (QPCT) | pIC50 [2] | pIC50 (QPCTL) | pIC50 [3] | SMILES
6.3 | 8.7 | 8.52 | 7.39 | 8.70 | 7.11 | Cn1cnnc1C1(F)CCN(c2c(C#N)cc(C(C)(C)O)nc2-c2ccc(F)nc2)CC1 [Example 1]
1.3 | 47 | 8.40 | 7.40 | 9.00 | 6.88 | Cn1cnnc1C1(F)CCN(c2c(C#N)cc(C3CC3(F)F)nc2-c2ccc(F)nc2)CC1 (stereo not shown) [Example 3]
1.6 | 27 | 8.05 | 7.22 | 8.40 | 6.21 | COc1cc(C#N)c(N2CCC(F)(c3nncn3C)CC2)c(-c2ccc(F)nc2)n1 [Example 5]
5.5 | 15 | 7.92 | 6.70 | 8.10 | 6.25 | COc1cnc(-c2ccc(F)nc2)c(N2CCC(F)(c3nncn3C)CC2)c1C#N [Example 7]
4.5 | 5.8 | 8.40 | 7.41 | 8.70 | 6.99 | Cn1cnnc1C1(F)CCN(c2c(C#N)ccnc2-c2cnc(F)c(N)c2)CC1 [Example 9]
13.1 | 1.6 | 7.52 | 6.55 | 8.10 | 6.27 | COCCOc1ncc(-c2nccc(C#N)c2N2CCC(F)(c3nncn3C)CC2)cn1 [Example 10]
5 | 13 | 7.32 | 6.38 | 7.89 | 5.93 | Cn1cnnc1C1(F)CCN(c2c(C#N)ccnc2-c2cncc(-c3ncco3)c2)CC1 [Example 11]
9.9 | 9.4 | 8.40 | 7.35 | 8.52 | 6.82 | Cn1cnnc1C1(F)CCN(c2c(C#N)ccnc2-c2cnc3nn(Cc4ccccc4)nc3c2)CC1 [Example 12]
9 | 6.2 | 7.62 | 6.45 | 8.10 | 6.22 | Cn1cnnc1C1(F)CCN(c2c(C#N)ccnc2-c2cnc3nn(Cc4ccc(C(F)(F)F)nc4)nc3c2)CC1 [Example 13]
32.8 | 0.7 | 7.96 | 6.69 | 8.52 | 6.17 | Cn1cnnc1C1(F)CCN(c2c(C#N)ccnc2-c2cnc3nnn(Cc4ccc(C(F)(F)F)nc4)c3c2)CC1 [Example 14]
1.6 | 47 | 7.24 | 6.39 | 7.82 | 6.53 | Cn1cnnc1C1(F)CCN(c2c(C#N)cc(C(F)(F)F)nc2-c2cnc3occc3c2)CC1 [Example 15]
 |  | 8.30 | 7.15 | 8.30 | 6.56 | Cn1cnnc1C1(F)CCN(c2c(C#N)ccnc2-c2cnn3nc(-c4cccnc4Cl)ccc23)CC1 [Example 17]
 |  | 9.00 | 7.80 | 8.70 | 7.36 | Cn1cnnc1C1(F)CCN(c2c(C#N)ccnc2-c2cnn3nc(-c4cc(Cl)ccc4C#N)ccc23)CC1 [Example 18]
 |  | 8.52 | 7.54 | 8.70 | 7.08 | Cn1cnnc1C1(F)CCN(c2c(C#N)ccnc2-c2cnn3nc(-c4ccc(Cl)cc4Cl)ccc23)CC1 [Example 20]
 |  | 9.00 | 7.96 | 8.70 | 7.80 | Cn1cnnc1C1(F)CCN(c2c(C#N)ccnc2-c2cnn3nc(-c4c(F)cccc4F)ccc23)CC1 [Example 21]
 |  | 8.70 | 7.29 | 8.70 | 6.93 | Cn1cnnc1C1(F)CCN(c2c(C#N)ccnc2-c2cnn3nc(-c4ccccc4C#N)ccc23)CC1 [Example 22]
 |  | 8.40 | 7.34 | 8.40 | 6.80 | COc1ccc(-c2ccc3c(-c4nccc(C#N)c4N4CCC(F)(c5nncn5C)CC4)cnn3n2)c(F)c1 [Example 23]
4.6 | 16 | 8.10 | 6.74 | 7.85 | 6.01 | Cc1noc(C)c1-c1ccc2c(-c3nccc(C#N)c3N3CCC(F)(c4nncn4C)CC3)cnn2n1 [Example 24]
7.7 | 5.3 | 8.22 | 7.11 | 9.00 | 6.82 | Cn1cc(-c2ccc3c(-c4nccc(C#N)c4N4CCC(F)(c5nncn5C)CC4)cnn3n2)cn1 [Example 25]
11.5 | 7.2 | 8.70 | 7.00 | 8.52 | 6.83 | Cn1cnnc1C1(F)CCN(c2c(C#N)ccnc2-c2cnn3nc(-c4cscc4C#N)ccc23)CC1 [Example 26]
2.2 | 16 | 8.52 | 7.28 | 8.40 | 6.97 | Cn1cnnc1C1(F)CCN(c2c(C#N)ccnc2-c2cnn3nc(-c4ccc(Cl)cc4)ccc23)CC1 [Example 27]
1.7 | 39 | 9.00 | 7.57 | 8.70 | 7.19 | Cn1cnnc1C1(F)CCN(c2c(C#N)ccnc2-c2cnn3nc(-c4ccccc4Cl)ccc23)CC1 [Example 29]
0.7 | 46 | 9.00 | 7.77 | 8.70 | 7.06 | CC(C)c1ccccc1-c1ccc2c(-c3nccc(C#N)c3N3CCC(F)(c4nncn4C)CC3)cnn2n1 [Example 30]
1.2 | 54 | 8.52 | 7.51 | 8.52 | 7.27 | Cn1cnnc1C1(F)CCN(c2c(C#N)ccnc2-c2cnn3nc(-c4ccccc4F)ccc23)CC1 [Example 31]

SMILES | efflux ratio [1] | Papp A→B [1] [×10⁻⁶ cm/s] | pIC50 (QPCT) | pIC50 [2] | pIC50 (QPCTL) | pIC50 [3]
Cn1cnnc1C1(F)CCN(c2c(C#N)cc(C(C)(C)O)nc2-c2cnc3nn(C(C)(C)C)c(Cl)c3c2)CC1 [Example 2] |  | 4.5 |  | 7.40 |  | 7.70
Cn1cnnc1C1(F)CCN(c2c(C#N)cc(C3CC3(F)F)nc2-c2cnc3nn(C(C)(C)C)cc3c2)CC1 (stereo not shown) [Example 4] |  | 8.8 |  | 7.77 |  | 7.82
Cn1cnnc1C1(F)CCN(c2c(C#N)cc(C(F)(F)F)nc2-c2cnc3nc(C(C)(C)C)oc3c2)CC1 [Example 16] |  | 33 |  | 7.49 |  | 7.57
Cc1ccccc1-c1ccc2c(-c3nccc(C#N)c3N3CCC(F)(c4nncn4C)CC3)cnn2n1 [Example 19] |  |  |  | 8.22 |  | 7.70
Cn1cnnc1C1(F)CCN(c2c(C#N)ccnc2-c2cnn3nc(-c4cccc(Cl)c4)ccc23)CC1 [Example 28] |  | 28 |  | 7.28 |  | 7.15
Cc1ccc(-c2ccc3c(-c4nccc(C#N)c4N4CCC(F)(c5nncn5C)CC4)cnn3n2)c(C)c1 [Example 32] |  | 60 |  | 7.68 |  | 7.14
Cn1cnnc1C1CCN(c2ncccc2-c2ccc(F)nc2)CC1 [SEN177, reference compound] |  |  |  | 6.67 |  | 5.86
